Literature values in EP1568762A1, “Detergent tablet compositions and their manufacture” (UNILEVER N.V., priority 2004, dated 2005).
Read-outs that look alike come from different tables or passages of the source.

[1] = other common materials, by contrast, at 20°C

Compound | Water Solubility (g/100g) (highly water-soluble materials, grams of solid required to form a saturated solution in 100 grams of water at 20°C) | Water Solubility (g/100g) [1] [g/100g]
NC(N)=O [Urea] | >100 | 
O=BO[O-].[Na+] [Sodium perborate anhydrous] |  | 3.7
O=P(O)(O)OP(=O)(O)OP(=O)(O)O [Sodium tripolyphosphate anhydrous] |  | 15
